The source of these data is patent US8822517B2, “Arylosulfonamides for the treatment of CNS diseases” (Adamed SP. Z O.O., priority 2010, dated 2014).

In assay [1] the target is histaminergic H1 receptor (Homo sapiens, UniProt P35367). Kind of assay: Binding assay H1 (h), [3H]pyrilamine, HEK-293 cells. The settings on record: read-out: H1 [%]. On the set-up: expressed in transfected cells; host or cells: HEK-293 cells. The gist of the method:
(§1)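 Scintillation counting detects receptor-bound radioligand. Compound tested at 1×10^−6 M.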

Another assay concerns sigma σ receptor. Nature of the assay: Binding assay σ (non-selective), [3H]DTG, rat cerebral cortex. The settings on record: percent inhibition of control specific binding; compounds tested at 1×10^−6 M. In short, it runs like this: as §1
The target of assay [2] is serotoninergic 5-HT2A receptor (Homo sapiens, UniProt P28223). Nature of the assay: Binding assay 5-HT2A (h), [3H]ketanserin, HEK-293 cells. On the set-up: expressed in transfected cells; host or cells: HEK-293 cells. To be noted: read-out: 5-HT2A. In short, it runs like this:
as §1

The next assay deals with adrenergic α1 receptor. Nature of the assay: Binding assay α1 (non-selective), [3H]prazosin, rat cerebral cortex. The settings on record: percent inhibition of control specific binding; compounds tested at 1×10^−6 M. The gist of the method: as §1
The target in a further assay is dopaminergic D2 receptor (Homo sapiens, UniProt P14416). Nature of the assay: Binding assay D2S (h), [3H]methyl-spiperone, HEK-293 cells. Also noted: expressed in transfected cells; host or cells: HEK-293 cells. To be noted: read-out: D2 [%]. In short, it runs like this: as §1
Assay [3] addresses serotoninergic 5-HT6 receptor (Homo sapiens, UniProt P50406). Kind of assay: Binding assay 5-HT6 (h), [3H]LSD, CHO cells. The settings on record: read-out: 5-HT6. On the set-up: expressed in transfected cells; host or cells: CHO cells. In short, it runs like this: as §1
The target in assay [4] is T1, serotoninergic 5-HT1A receptor (Homo sapiens, UniProt P08908).
T1 sequence (P08908 1-422): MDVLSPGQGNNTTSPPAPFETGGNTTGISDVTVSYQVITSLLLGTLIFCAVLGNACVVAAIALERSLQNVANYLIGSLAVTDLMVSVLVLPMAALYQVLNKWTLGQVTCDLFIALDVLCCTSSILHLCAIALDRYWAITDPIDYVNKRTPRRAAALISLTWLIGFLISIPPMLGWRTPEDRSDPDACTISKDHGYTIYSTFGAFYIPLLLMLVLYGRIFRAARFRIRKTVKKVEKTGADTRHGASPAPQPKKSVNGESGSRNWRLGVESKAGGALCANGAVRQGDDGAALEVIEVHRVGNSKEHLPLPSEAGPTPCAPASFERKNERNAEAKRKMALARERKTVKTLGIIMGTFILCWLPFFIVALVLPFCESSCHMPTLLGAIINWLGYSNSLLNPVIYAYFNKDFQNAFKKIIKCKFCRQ
Nature of the assay: Binding assay 5-HT1A (h), [3H]8-OH-DPAT, HEK-293 cells. On the set-up: expressed in transfected cells; host or cells: HEK-293 cells. To be noted: read-out: 5-HT1A. In short, it runs like this: as §1

Assay [5] addresses T2, serotonine transporter (SERT) receptor (Homo sapiens, UniProt P31645).
T2 construct: expressed in transfected cells; host or cells: CHO cells
Kind of assay: Binding assay SERT (h), [3H]imipramine, CHO cells. The settings on record: read-out: SERT [%]. In short, it runs like this:
as §1

The target of another assay is T3, muscarinic M3 receptor (Homo sapiens, UniProt P20309).
T3 construct: expressed in transfected cells; host or cells: CHO cells
Kind of assay: Binding assay M3 (h), [3H]4-DAMP, CHO cells. The settings on record: read-out: M3 [%]. In short, it runs like this: as §1

Another assay deals with T4, adrenergic α2C receptor (Homo sapiens, UniProt P18825).
T4 sequence (P18825 1-462): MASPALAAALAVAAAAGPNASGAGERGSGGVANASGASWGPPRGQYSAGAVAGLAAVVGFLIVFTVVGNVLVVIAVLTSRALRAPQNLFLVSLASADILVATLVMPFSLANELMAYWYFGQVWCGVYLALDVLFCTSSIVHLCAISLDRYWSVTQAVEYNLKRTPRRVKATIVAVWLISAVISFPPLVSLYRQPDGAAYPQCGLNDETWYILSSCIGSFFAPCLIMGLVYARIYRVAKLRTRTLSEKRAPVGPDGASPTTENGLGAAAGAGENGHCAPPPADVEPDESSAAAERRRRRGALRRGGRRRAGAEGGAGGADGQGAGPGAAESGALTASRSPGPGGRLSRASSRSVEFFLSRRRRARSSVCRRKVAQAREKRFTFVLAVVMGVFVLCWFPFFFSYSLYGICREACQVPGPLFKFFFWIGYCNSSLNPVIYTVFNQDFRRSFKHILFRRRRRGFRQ
Nature of the assay: Binding assay α2C (h), [3H]RX 821002, CHO cells. On the set-up: expressed in transfected cells; host or cells: CHO cells. To be noted: read-out: α2C [%]. In short, it runs like this: as §1

For assay [6], the target named is serotoninergic 5-HT7 receptor (Homo sapiens, UniProt P34969). Kind of assay: Binding assay 5-HT7 (h), [3H]LSD, CHO cells. On the set-up: expressed in transfected cells; host or cells: CHO cells. The settings on record: read-out: 5-HT7. In short, it runs like this: as §1
Assay [7] addresses T5, serotoninergic receptor 5-HT2C (Homo sapiens, UniProt P28335).
T5 construct: expressed in transfected cells; host or cells: HEK-293 cells
T5 sequence (P28335 33-458): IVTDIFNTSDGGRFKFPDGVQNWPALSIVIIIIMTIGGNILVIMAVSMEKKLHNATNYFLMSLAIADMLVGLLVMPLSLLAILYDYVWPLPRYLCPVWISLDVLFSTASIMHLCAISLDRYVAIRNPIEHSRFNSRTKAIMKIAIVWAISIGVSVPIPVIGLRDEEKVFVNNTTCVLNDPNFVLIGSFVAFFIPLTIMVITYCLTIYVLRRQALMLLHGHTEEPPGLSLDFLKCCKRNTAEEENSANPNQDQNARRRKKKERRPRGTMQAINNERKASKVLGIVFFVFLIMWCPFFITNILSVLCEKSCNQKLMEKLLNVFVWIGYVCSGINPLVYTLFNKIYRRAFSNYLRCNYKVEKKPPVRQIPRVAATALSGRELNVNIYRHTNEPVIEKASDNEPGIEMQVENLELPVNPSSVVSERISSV
Nature of the assay: Binding assay 5-HT2C (h), [3H]mesulergine, HEK-293 cells. The settings on record: read-out: 5-HT2C [%]. In short, it runs like this: as §1

A further assay addresses dopaminergic D3 receptor (Homo sapiens, UniProt P35462). Nature of the assay: Binding assay D3 (h), [3H]methyl-spiperone, CHO cells. The settings on record: read-out: D3 [%]. On the set-up: expressed in transfected cells; host or cells: CHO cells. In short, it runs like this: as §1

Each structure is given as a SMILES string.

Chain of histaminergic H1 receptor (P35367 whole entry): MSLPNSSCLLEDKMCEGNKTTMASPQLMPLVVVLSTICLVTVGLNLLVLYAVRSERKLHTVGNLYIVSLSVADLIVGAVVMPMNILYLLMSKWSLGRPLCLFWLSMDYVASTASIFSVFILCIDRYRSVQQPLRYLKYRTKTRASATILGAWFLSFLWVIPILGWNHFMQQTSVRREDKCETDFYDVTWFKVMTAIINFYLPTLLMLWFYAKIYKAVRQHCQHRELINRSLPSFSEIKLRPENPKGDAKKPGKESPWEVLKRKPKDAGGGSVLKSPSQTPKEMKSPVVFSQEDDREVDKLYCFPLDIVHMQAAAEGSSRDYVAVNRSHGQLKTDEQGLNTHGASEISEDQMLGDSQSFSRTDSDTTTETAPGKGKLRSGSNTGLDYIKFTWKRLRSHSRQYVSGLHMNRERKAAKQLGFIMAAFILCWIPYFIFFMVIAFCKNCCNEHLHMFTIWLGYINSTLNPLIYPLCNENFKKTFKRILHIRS
Chain of serotoninergic 5-HT2A receptor (P28223 whole entry): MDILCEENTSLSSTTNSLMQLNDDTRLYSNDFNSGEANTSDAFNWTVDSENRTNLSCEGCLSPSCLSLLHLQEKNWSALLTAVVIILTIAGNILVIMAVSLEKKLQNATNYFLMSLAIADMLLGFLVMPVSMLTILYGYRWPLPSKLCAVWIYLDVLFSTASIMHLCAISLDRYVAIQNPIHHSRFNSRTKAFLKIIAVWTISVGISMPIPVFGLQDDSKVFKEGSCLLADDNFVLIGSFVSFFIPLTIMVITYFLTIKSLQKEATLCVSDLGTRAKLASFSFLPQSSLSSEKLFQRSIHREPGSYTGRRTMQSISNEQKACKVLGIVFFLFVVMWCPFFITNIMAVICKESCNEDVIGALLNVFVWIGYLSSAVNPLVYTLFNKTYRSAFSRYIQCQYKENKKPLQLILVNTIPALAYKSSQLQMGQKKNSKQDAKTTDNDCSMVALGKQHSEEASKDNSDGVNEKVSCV
Chain of serotoninergic 5-HT7 receptor (P34969 whole entry): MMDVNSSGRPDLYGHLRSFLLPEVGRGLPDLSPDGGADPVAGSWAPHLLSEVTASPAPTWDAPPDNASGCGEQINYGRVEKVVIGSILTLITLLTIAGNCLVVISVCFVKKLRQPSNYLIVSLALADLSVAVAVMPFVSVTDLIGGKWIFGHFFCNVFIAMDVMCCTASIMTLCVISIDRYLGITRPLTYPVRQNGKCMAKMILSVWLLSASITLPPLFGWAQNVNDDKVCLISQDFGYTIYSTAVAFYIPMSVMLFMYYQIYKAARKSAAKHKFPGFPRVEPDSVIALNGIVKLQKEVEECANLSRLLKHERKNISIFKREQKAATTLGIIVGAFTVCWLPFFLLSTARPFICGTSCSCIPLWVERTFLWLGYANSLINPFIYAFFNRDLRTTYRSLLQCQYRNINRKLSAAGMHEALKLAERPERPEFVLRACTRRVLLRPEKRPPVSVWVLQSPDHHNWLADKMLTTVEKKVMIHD
Chain of serotoninergic 5-HT6 receptor (P50406 whole entry): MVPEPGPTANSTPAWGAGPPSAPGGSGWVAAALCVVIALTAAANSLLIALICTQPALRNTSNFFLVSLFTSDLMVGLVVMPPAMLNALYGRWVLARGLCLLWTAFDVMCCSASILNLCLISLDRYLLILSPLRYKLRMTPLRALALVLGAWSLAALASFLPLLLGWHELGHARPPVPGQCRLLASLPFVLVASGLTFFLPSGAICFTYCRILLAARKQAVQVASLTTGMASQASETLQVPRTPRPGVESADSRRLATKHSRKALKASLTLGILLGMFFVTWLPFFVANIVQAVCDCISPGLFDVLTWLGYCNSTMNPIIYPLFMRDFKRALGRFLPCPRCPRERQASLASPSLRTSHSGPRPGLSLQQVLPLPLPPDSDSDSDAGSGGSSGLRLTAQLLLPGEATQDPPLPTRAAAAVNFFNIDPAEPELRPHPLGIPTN
Chain of dopaminergic D3 receptor (P35462 whole entry): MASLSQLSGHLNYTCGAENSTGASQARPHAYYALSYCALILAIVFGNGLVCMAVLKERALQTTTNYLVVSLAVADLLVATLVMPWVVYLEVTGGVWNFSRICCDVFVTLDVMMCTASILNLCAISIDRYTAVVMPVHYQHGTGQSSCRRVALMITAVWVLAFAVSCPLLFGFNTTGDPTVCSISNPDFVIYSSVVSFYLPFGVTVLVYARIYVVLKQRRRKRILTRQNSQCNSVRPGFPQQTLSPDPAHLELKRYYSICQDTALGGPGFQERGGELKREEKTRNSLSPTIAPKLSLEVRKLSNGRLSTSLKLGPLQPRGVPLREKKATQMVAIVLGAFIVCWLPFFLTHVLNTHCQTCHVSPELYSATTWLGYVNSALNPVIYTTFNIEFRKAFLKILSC
T3 sequence (P20309 whole entry): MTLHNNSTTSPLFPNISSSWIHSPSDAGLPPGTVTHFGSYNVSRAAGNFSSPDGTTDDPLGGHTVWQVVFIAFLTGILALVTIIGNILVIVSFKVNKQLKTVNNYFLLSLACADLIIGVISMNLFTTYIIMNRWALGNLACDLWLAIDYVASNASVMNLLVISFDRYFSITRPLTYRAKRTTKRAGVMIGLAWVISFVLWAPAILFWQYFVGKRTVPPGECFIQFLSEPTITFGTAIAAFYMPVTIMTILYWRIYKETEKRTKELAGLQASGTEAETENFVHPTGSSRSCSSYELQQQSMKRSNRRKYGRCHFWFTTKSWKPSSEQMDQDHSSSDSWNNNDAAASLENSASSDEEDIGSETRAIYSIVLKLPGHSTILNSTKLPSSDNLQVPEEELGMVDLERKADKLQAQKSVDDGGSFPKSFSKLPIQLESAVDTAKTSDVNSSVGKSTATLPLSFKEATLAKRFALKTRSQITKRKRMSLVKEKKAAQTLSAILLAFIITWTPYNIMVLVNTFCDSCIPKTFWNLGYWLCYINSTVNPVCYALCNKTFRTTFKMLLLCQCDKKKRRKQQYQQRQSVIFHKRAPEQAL
T2 sequence (P31645 whole entry): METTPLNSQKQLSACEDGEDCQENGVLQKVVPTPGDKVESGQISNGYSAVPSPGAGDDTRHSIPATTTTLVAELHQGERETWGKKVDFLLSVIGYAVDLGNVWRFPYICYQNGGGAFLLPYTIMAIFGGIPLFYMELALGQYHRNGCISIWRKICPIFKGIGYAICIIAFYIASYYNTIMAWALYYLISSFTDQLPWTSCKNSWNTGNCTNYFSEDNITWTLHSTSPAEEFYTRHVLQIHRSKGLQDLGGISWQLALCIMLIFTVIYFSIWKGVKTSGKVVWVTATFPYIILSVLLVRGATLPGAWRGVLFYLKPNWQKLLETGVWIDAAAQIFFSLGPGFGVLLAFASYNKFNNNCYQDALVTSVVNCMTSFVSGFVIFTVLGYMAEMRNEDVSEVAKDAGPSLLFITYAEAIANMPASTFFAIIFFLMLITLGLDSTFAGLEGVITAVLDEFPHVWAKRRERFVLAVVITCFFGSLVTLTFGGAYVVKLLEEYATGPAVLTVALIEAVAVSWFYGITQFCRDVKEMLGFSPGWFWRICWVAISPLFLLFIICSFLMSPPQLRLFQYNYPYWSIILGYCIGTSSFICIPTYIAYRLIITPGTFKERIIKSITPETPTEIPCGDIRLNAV
Chain of dopaminergic D2 receptor (P14416 1-414 isoform P14416-2): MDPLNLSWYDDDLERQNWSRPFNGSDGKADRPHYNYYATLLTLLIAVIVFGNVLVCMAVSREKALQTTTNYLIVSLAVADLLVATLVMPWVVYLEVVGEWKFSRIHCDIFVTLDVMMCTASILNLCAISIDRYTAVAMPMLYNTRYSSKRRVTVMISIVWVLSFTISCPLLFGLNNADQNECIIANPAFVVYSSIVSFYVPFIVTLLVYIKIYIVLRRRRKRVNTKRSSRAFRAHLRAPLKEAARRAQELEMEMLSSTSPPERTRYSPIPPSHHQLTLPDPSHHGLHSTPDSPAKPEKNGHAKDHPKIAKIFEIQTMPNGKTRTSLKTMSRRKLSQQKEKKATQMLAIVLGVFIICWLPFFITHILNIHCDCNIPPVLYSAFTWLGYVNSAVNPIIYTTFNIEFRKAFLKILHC

For `Cc1c(S(=O)(=O)NCCCCN2CCC(c3noc4cc(F)ccc34)CC2)sc2ccc(Cl)cc12` [Compound 315, 5-Chloro-N-[4-[4-(6-fluoro-1,2-benzoxazol-3-yl)piperidin-1-yl]butyl]-3-methylbenzothiophene-2-sulphonamide], the inhibition at 1 µM stood at 90% in assay [1]; 102% in assay [2]; 99% on dopaminergic D2 receptor; 98% in assay [3]; 70% in assay [4]; 68% in assay [5]. For the same compound, the inhibition at 1 µM amounted to 24% on muscarinic M3 receptor; 93% at adrenergic α2C receptor; 98% in [6]; 78% in assay [7]; 97% on dopaminergic D3 receptor. The “σ [%]” value in the assay on sigma σ receptor was determined as 72%. In addition, the “α1 [%]” value in the assay with adrenergic α1 receptor is given as −13%.

With `O=S(=O)(NCCCCN1CCC(c2noc3cc(F)ccc23)CC1)c1ccc2c(c1)OCO2` [Compound 320, N-[4-[4-(6-Fluoro-1,2-benzoxazol-3-yl)piperidin-1-yl]butyl]-1,3-benzodioxole-5-sulphonamide], the inhibition at 1 µM was determined as 84% in assay [1]; 101% in [2]; 100% at dopaminergic D2 receptor; 82% in assay [3]; 69% in assay [4]; 13% in assay [5]. The inhibition at 1 µM on muscarinic M3 receptor was found to be 24%; on adrenergic α2C receptor, 101%; in assay [6], 99%; in assay [7], 46%; on dopaminergic D3 receptor, 99%. For the same compound, the “σ [%]” value in the assay on sigma σ receptor was determined as 80%. Also, the “α1 [%]” value in the assay on adrenergic α1 receptor came to 98%.

Turning to `O=S(=O)(NCCCCN1CCC(c2noc3cc(F)ccc23)CC1)c1cc2ccccc2o1` [Compound 316, N-[4-[4-(6-Fluoro-1,2-benzoxazol-3-yl)piperidin-1-yl]butyl]benzofuran-2-sulphonamide], the inhibition at 1 µM in assay [1] was 85%; in assay [2] it was 102%; at dopaminergic D2 receptor, 98%; in assay [3], 93%; in assay [4] it was 84%; in [5] it was 47%. The inhibition at 1 µM on muscarinic M3 receptor was 28%; on adrenergic α2C receptor, 94%; in [6] it was 97%; in assay [7], 66%; on dopaminergic D3 receptor, 95%. The “σ [%]” value in the assay with sigma σ receptor was 81%. In the assay with adrenergic α1 receptor, the “α1 [%]” value is 90%.

In the case of `CC(C)(C)c1ccc(S(=O)(=O)NCCCN2CCN(c3nsc4ccccc34)CC2)cc1` [Compound 256, N-[3-[4-(1,2-Benzothiazol-3-yl)piperazin-1-yl]propyl]-4-tert-butylbenzenesulphonamide], the inhibition at 1 µM was 94% in assay [1]; 102% in [2]; 97% at dopaminergic D2 receptor; 95% in [3]; 96% in assay [4]; 93% in assay [5]. For the same compound, the inhibition at 1 µM on muscarinic M3 receptor was determined as 15%; at adrenergic α2C receptor, 92%; in assay [6] it was 100%; in assay [7], 94%; on dopaminergic D3 receptor it was 96%. Besides, in the assay with sigma σ receptor, the “σ [%]” value is 41%. In addition, in the assay with adrenergic α1 receptor, the “α1 [%]” value is given as 87%.

For `O=S(=O)(NCCCN1CCN(c2nsc3ccccc23)CC1)c1ccc(F)c(F)c1` [Compound 249, N-[3-[4-(1,2-Benzothiazol-3-yl)piperazin-1-yl]propyl]-3,4-difluorobenzenesulphonamide], the inhibition at 1 µM in assay [1] stood at 97%; in [2] it was 101%; on dopaminergic D2 receptor it was 98%; in assay [3] it was 101%; in assay [4] it was 100%; in [5], 77%. Also, the inhibition at 1 µM amounted to 9% on muscarinic M3 receptor; 98% on adrenergic α2C receptor; 100% in assay [6]; 89% in assay [7]; 100% on dopaminergic D3 receptor. The “σ [%]” value with sigma σ receptor is 68%. Moreover, the “α1 [%]” value with adrenergic α1 receptor is 99%.

As to `O=S(=O)(NCCCN1CCN(c2nsc3ccccc23)CC1)c1cccc(C(F)(F)F)c1` [Compound 258, N-[3-[4-(1,2-Benzothiazol-3-yl)piperazin-1-yl]propyl]-3-(trifluoromethyl)benzenesulphonamide], the inhibition at 1 µM in assay [1] stood at 97%; in assay [2] it was 101%; at dopaminergic D2 receptor, 95%; in assay [3] it was 98%; in assay [4], 100%; in assay [5], 80%. The inhibition at 1 µM at muscarinic M3 receptor stood at 15%; at adrenergic α2C receptor, 98%; in assay [6], 100%; in [7] it was 86%; at dopaminergic D3 receptor, 97%. In the assay on sigma σ receptor, the “σ [%]” value worked out at 61%. In addition, in the assay on adrenergic α1 receptor, the “α1 [%]” value is listed as 97%.

For the compound `O=S(=O)(NCCCCN1CCN(c2nsc3ccccc23)CC1)c1ccc(F)c(Cl)c1` [Compound 63, N-[4-[4-(1,2-Benzothiazol-3-yl)piperazin-1-yl]butyl]-3-chloro-4-fluorobenzenesulphonamide], the inhibition at 1 µM in assay [1] was 99%; in [2], 100%; on dopaminergic D2 receptor it was 99%; in [3], 89%; in assay [4] it was 97%; in [5], 53%. Further, the inhibition at 1 µM was determined as 11% on muscarinic M3 receptor; 98% on adrenergic α2C receptor; 99% in assay [6]; 95% in assay [7]; 103% at dopaminergic D3 receptor. Besides, the “σ [%]” value in the assay on sigma σ receptor came to 54%. Besides, in the assay with adrenergic α1 receptor, the “α1 [%]” value is listed as 99%.
